Test results published in ChEMBL document CHEMBL3885881, “DrugMatrix”.

Organism: Rattus norvegicus
Assay: DrugMatrix - Regimen: Daily Repeat
Type: toxicity, organism-based, Sprague-Dawley
Design: regimen Daily Repeat, gender Male, age 6-8 weeks
Settings: in vivo, po, route oral GAVAGE, vehicle 100 % SALINE; for ABSOLUTE BASOPHIL / ABSOLUTE EOSINOPHIL / ABSOLUTE LYMPHOCYTE / ABSOLUTE MONOCYTE / ABSOLUTE SEGMENTED NEUTROPHIL / BASOPHIL / EOSINOPHIL / ERYTHROCYTE COUNT / HEMATOCRIT / HEMOGLOBIN / LEUKOCYTE COUNT / LYMPHOCYTE / MEAN CORPUSCULAR HEMOGLOBIN / MEAN CORPUSCULAR HEMOGLOBIN CONCENTRATION / MEAN CORPUSCULAR VOLUME / MONOCYTE / NEUTROPHIL / NUCLEATED RED BLOOD CELLS / PLATELET COUNT: tissue Blood; for ALANINE AMINOTRANSFERASE / ALBUMIN / ALKALINE PHOSPHATASE / ASPARTATE AMINOTRANSFERASE / BLOOD UREA NITROGEN / CARBON DIOXIDE / CHLORIDE / CHOLESTEROL / CREATINE PHOSPHOKINASE / CREATININE / GLUCOSE / LACTATE DEHYDROGENASE / LIPASE / PHOSPHORUS / POTASSIUM / SODIUM / TOTAL BILIRUBIN / TOTAL PROTEIN / URIC ACID: tissue Plasma
[1] = 46 mg/kg, 120 h, dose level Low, time 5 day
[2] = 360 mg/kg, 72 h, dose level High, time 3 day
[3] = 360 mg/kg, 120 h, dose level High, time 5 day

Compound: COc1ccc2cc(CC(=O)O)ccc2c1
- ABSOLUTE BASOPHIL [1]: 0 CELLS/uL
- ABSOLUTE EOSINOPHIL [1]: 93.33 CELLS/uL
- ABSOLUTE LYMPHOCYTE [1]: 9837 CELLS/uL
- ABSOLUTE MONOCYTE [1]: 271.67 CELLS/uL
- ABSOLUTE SEGMENTED NEUTROPHIL [1]: 1398 CELLS/uL
- BASOPHIL [1]: 0%
- EOSINOPHIL [1]: 0.67%
- ERYTHROCYTE COUNT [1]: 5.65 x10E6/uL
- HEMATOCRIT [1]: 35.2%
- HEMOGLOBIN [1]: 13.83 G/DL
- LEUKOCYTE COUNT [1]: 11.6 x10E3/uL
- LYMPHOCYTE [1]: 86%
- MEAN CORPUSCULAR HEMOGLOBIN [1]: 24.5 pg
- MEAN CORPUSCULAR HEMOGLOBIN CONCENTRATION [1]: 39.33 G/DL
- MEAN CORPUSCULAR VOLUME [1]: 62.23 fL
- MONOCYTE [1]: 2.33%
- NEUTROPHIL [1]: 11%
- NUCLEATED RED BLOOD CELLS [1]: 0 /100WBC
- PLATELET COUNT [1]: 1138.33 x10E3/uL
- ALANINE AMINOTRANSFERASE [1]: 39.67 u/L
- ALBUMIN [1]: 3.93 G/DL
- ALKALINE PHOSPHATASE [1]: 339 u/L
- ASPARTATE AMINOTRANSFERASE [1]: 71 u/L
- BLOOD UREA NITROGEN [1]: 16.67 mg/dL
- CARBON DIOXIDE [1]: 37.33 mmol/L
- CHLORIDE [1]: 100 MEQ/L
- CHOLESTEROL [1]: 65.67 mg/dL
- CREATINE PHOSPHOKINASE [1]: 168 u/L
- CREATININE [1]: 0.25 mg/dL
- GLUCOSE [1]: 144.33 mg/dL
- LACTATE DEHYDROGENASE [1]: 125.67 u/L
- LIPASE [1]: 9.33 u/L
- PHOSPHORUS [1]: 9.93 mg/dL
- POTASSIUM [1]: 6.48 MEQ/L
- SODIUM [1]: 142.9 MEQ/L
- TOTAL BILIRUBIN [1]: 0.2 mg/dL
- TOTAL PROTEIN [1]: 5.57 G/DL
- URIC ACID [1]: 1.23 mg/dL
- ABSOLUTE BASOPHIL [2]: 0 CELLS/uL
- ABSOLUTE EOSINOPHIL [2]: 13.33 CELLS/uL
- ABSOLUTE LYMPHOCYTE [2]: 7596.67 CELLS/uL
- ABSOLUTE MONOCYTE [2]: 249.33 CELLS/uL
- ABSOLUTE SEGMENTED NEUTROPHIL [2]: 2774 CELLS/uL
- BASOPHIL [2]: 0%
- EOSINOPHIL [2]: 0.33%
- ERYTHROCYTE COUNT [2]: 3.71 x10E6/uL
- HEMATOCRIT [2]: 23.17%
- HEMOGLOBIN [2]: 9.43 G/DL
- LEUKOCYTE COUNT [2]: 10.63 x10E3/uL
- LYMPHOCYTE [2]: 66.67%
- MEAN CORPUSCULAR HEMOGLOBIN [2]: 25.93 pg
- MEAN CORPUSCULAR HEMOGLOBIN CONCENTRATION [2]: 41.23 G/DL
- MEAN CORPUSCULAR VOLUME [2]: 62.9 fL
- MONOCYTE [2]: 1.67%
- NEUTROPHIL [2]: 31.33%
- NUCLEATED RED BLOOD CELLS [2]: 1.67 /100WBC
- PLATELET COUNT [2]: 943 x10E3/uL
- ALANINE AMINOTRANSFERASE [2]: 45.33 u/L
- ALBUMIN [2]: 2.4 G/DL
- ALKALINE PHOSPHATASE [2]: 253 u/L
- ASPARTATE AMINOTRANSFERASE [2]: 212.33 u/L
- BLOOD UREA NITROGEN [2]: 22.33 mg/dL
- CARBON DIOXIDE [2]: 20.33 mmol/L
- CHLORIDE [2]: 99.67 MEQ/L
- CHOLESTEROL [2]: 66.67 mg/dL
- CREATINE PHOSPHOKINASE [2]: 1447.67 u/L
- CREATININE [2]: 0.17 mg/dL
- GLUCOSE [2]: 135.67 mg/dL
- LACTATE DEHYDROGENASE [2]: 735.67 u/L
- LIPASE [2]: 8.67 u/L
- PHOSPHORUS [2]: 17 mg/dL
- POTASSIUM [2]: 8 MEQ/L
- SODIUM [2]: 141 MEQ/L
- TOTAL BILIRUBIN [2]: 0.17 mg/dL
- TOTAL PROTEIN [2]: 5.13 G/DL
- URIC ACID [2]: 3.87 mg/dL
- ABSOLUTE BASOPHIL [3]: 0 CELLS/uL
- ABSOLUTE EOSINOPHIL [3]: 0 CELLS/uL
- ABSOLUTE LYMPHOCYTE [3]: 14145 CELLS/uL
- ABSOLUTE MONOCYTE [3]: 225 CELLS/uL
- ABSOLUTE SEGMENTED NEUTROPHIL [3]: 8130 CELLS/uL
- BASOPHIL [3]: 0%
- EOSINOPHIL [3]: 0%
- ERYTHROCYTE COUNT [3]: 4.19 x10E6/uL
- HEMATOCRIT [3]: 26.25%
- HEMOGLOBIN [3]: 10.55 G/DL
- LEUKOCYTE COUNT [3]: 22.5 x10E3/uL
- LYMPHOCYTE [3]: 62%
- MEAN CORPUSCULAR HEMOGLOBIN [3]: 25.2 pg
- MEAN CORPUSCULAR HEMOGLOBIN CONCENTRATION [3]: 40.2 G/DL
- MEAN CORPUSCULAR VOLUME [3]: 62.7 fL
- MONOCYTE [3]: 1%
- NEUTROPHIL [3]: 37%
- NUCLEATED RED BLOOD CELLS [3]: 0 /100WBC
- PLATELET COUNT [3]: 2123.5 x10E3/uL
- ALANINE AMINOTRANSFERASE [3]: 16.5 u/L
- ALBUMIN [3]: 2.7 G/DL
- ALKALINE PHOSPHATASE [3]: 153.5 u/L
- ASPARTATE AMINOTRANSFERASE [3]: 50 u/L
- BLOOD UREA NITROGEN [3]: 14 mg/dL
- CARBON DIOXIDE [3]: 28 mmol/L
- CHLORIDE [3]: 103 MEQ/L
- CHOLESTEROL [3]: 71.5 mg/dL
- CREATINE PHOSPHOKINASE [3]: 441 u/L
- CREATININE [3]: 0.14 mg/dL
- GLUCOSE [3]: 156.5 mg/dL
- LACTATE DEHYDROGENASE [3]: 371.5 u/L
- LIPASE [3]: 8 u/L
- PHOSPHORUS [3]: 10.3 mg/dL
- POTASSIUM [3]: 5.81 MEQ/L
- SODIUM [3]: 139.25 MEQ/L
- TOTAL BILIRUBIN [3]: 0.1 mg/dL
- TOTAL PROTEIN [3]: 4.85 G/DL
- URIC ACID [3]: 2.15 mg/dL
